Assay results published in patent EP4230620A1, “SUBSTITUTED N-AMINO-N-BENZOIC ACID URACILS, THEIR SALTS AND USE OF SAID COMPOUNDS AS HERBICIDAL AGENTS” (Bayer Aktiengesellschaft, priority 2022, dated 2023).

Assays:
Type in all cases: in vivo
Alopecurus myosuroides = experiment: Post-emergence herbicidal action in greenhouse against ALOMY; details: post-emergence spray, 600 l/ha water, visual rating after ca. 3 weeks vs untreated controls, 100% = plants dead, 0% = like control plants
Excerpt: (§1) Biologische Beispiele: • Die folgenden Abkürzungen werden für die in den folgenden Tabellen aufgeführten Kultur- und Schadpflanzen verwendet: ABUTH: Abutilon theophrasti ALOMY: Alopecurus myosuroides AMARE: Amaranthus retroflexus BRSNS: Brassica napus DIGSA: Digitaria sanguinalis ECHCG: Echinochloa crus-galli GLXMA: Glycine max KCHSC: Kochia scoparia LOLRI: Lolium rigidum MATIN: Matricaria inodora ORYZA: Oryza sativa PHPBU: Pharbitis purpurea POLCO: Polygonum convolvulus SETVI: Setaria viridis VERPE: Veronica persica VIOTR: Viola tricolor TRZAS: Triticum aestivum ZEAMX: Zea mays • A. Herbizide Wirkung im Nachauflauf
(§2) Samen von mono- bzw. dikotylen Unkrautpflanzen wurden in Kunststoff- oder Holzfasertöpfen in sandigem Lehmboden ausgelegt, mit Erde abgedeckt und im Gewächshaus unter kontrollierten Wachstumsbedingungen angezogen. 2 bis 3 Wochen nach der Aussaat wurden die Versuchspflanzen im Einblattstadium behandelt. Die in Form von benetzbaren Pulvern (WP) oder als Emulsionskonzentrate (EC) formulierten erfindungsgemäßen Verbindungen wurden dann als wässrige Suspension bzw. Emulsion unter Zusatz von 0,5% Additiv mit einer Wasseraufwandmenge von umgerechnet 600 l/ha auf die grünen Pflanzenteile gesprüht. Nach ca. 3 Wochen Standzeit der Versuchspflanzen im Gewächshaus, unter optimalen Wachstumsbedingungen, wurde die Wirkung der Präparate visuell im Vergleich zu unbehandelten Kontrollen bonitiert. Beispielsweise bedeutet 100% Wirkung = Pflanzen sind abgestorben, 0% Wirkung = wie Kontrollpflanzen.
(§3) In den nachstehenden Tabellen A1 bis A11 sind die Wirkungen ausgewählter Verbindungen der allgemeinen Formel (I) gemäß der Tabelle 1 auf verschiedene Schadpflanzen und einer Aufwandmenge entsprechend 20 g/ha und niedriger, die gemäß zuvor genannter Versuchsvorschrift erhalten wurden, dargestellt. Tabelle A1a: Nachauflaufwirkung bei 1,25 g/ha gegen ABUTH in %

Matricaria inodora = experiment: Post-emergence herbicidal action in greenhouse against MATIN; details: visual rating after ca. 3 weeks
Excerpt: as §1, §2, §3

Pharbitis purpurea = experiment: Post-emergence herbicidal action in greenhouse against PHBPU; details: visual rating after ca. 3 weeks
Excerpt: as §1, §2, §3

Triticum aestivum = experiment: Post-emergence action on crop plants in greenhouse, TRZAS; details: crop plant, visual rating after ca. 3 weeks, 100% = plants dead, 0% = like control plants
Excerpt: as §1
as §2, with “Kulturpflanzen” for “Unkrautpflanzen”
(§4) In den nachstehenden Tabellen B1 bis B4 sind die Wirkungen ausgewählter Verbindungen der allgemeinen Formel (I) gemäß der Tabelle 1 auf verschiedene Kulturpflanzen und einer Aufwandmenge entsprechend 20 g/ha und niedriger, die gemäß zuvor genannter Versuchsvorschrift erhalten wurden, dargestellt. Tabelle B1a: Nachauflaufwirkung bei 1,25 g/ha gegen ZEAMX in %

Polygonum convolvulus = experiment: Post-emergence herbicidal action in greenhouse against POLCO; details: visual rating after ca. 3 weeks
Excerpt: as §1, §2, §3

Viola tricolor = experiment: Post-emergence herbicidal action in greenhouse against VIOTR; details: visual rating after ca. 3 weeks
Excerpt: as §1, §2, §3

Oryza sativa = experiment: Post-emergence action on crop plants in greenhouse, ORYZA; details: 1,25 g/ha, crop plant, visual rating after ca. 3 weeks, 100% = plants dead, 0% = like control plants
Excerpt: as §1
as §2, with “Kulturpflanzen” for “Unkrautpflanzen”
as §4

Zea mays = experiment: Post-emergence action on crop plants in greenhouse, ZEAMX; details: 1,25 g/ha, crop plant, post-emergence, visual rating after ca. 3 weeks; 100% = plants dead, 0% = like control plants
Excerpt: as §1
as §2, with “Kulturpflanzen” for “Unkrautpflanzen”
as §4

Veronica persica = experiment: Post-emergence herbicidal action in greenhouse against VERPE; details: visual rating after ca. 3 weeks
Excerpt: as §1, §2, §3

Amaranthus retroflexus = experiment: Post-emergence herbicidal action in greenhouse against AMARE; details: post-emergence spray, 600 l/ha water, visual rating after ca. 3 weeks vs untreated controls, 100% = plants dead, 0% = like control plants
Excerpt: as §1, §2, §3

Setaria viridis = experiment: Post-emergence herbicidal action in greenhouse against SETVI; details: visual rating after ca. 3 weeks
Excerpt: as §1, §2, §3

Lolium rigidum = experiment: Post-emergence herbicidal action in greenhouse against LOLRI; details: 20 g/ha; post-emergence spray, 600 l/ha water; visual rating after ca. 3 weeks vs untreated controls; 100% = plants dead, 0% = like control plants
Excerpt: as §1, §2, §3

Digitaria sanguinalis = experiment: Post-emergence herbicidal action in greenhouse against DIGSA; details: visual rating after ca. 3 weeks
Excerpt: as §1, §2, §3

Abutilon theophrasti = experiment: Post-emergence herbicidal action in greenhouse against ABUTH; details: post-emergence spray, 600 l/ha water, visual rating after ca. 3 weeks vs untreated controls, 100% = plants dead, 0% = like control plants
Excerpt: as §1, §2, §3

Structure (SMILES) | Nachauflaufwirkung gegen ALOMY (Alopecurus myosuroides; 20 g/ha) [%] | Nachauflaufwirkung gegen MATIN (Matricaria inodora; 5 g/ha) [%] | Nachauflaufwirkung gegen MATIN (Matricaria inodora; 20 g/ha) [%] | Nachauflaufwirkung gegen PHBPU (Pharbitis purpurea; 1,25 g/ha) [%] | Nachauflaufwirkung gegen PHBPU (Pharbitis purpurea; 5 g/ha) [%] | Nachauflaufwirkung gegen PHBPU (Pharbitis purpurea; 20 g/ha) [%] | Nachauflaufwirkung gegen TRZAS (Triticum aestivum; 1,25 g/ha) [%] | Nachauflaufwirkung gegen TRZAS (Triticum aestivum; 5 g/ha) [%] | Nachauflaufwirkung gegen POLCO (Polygonum convolvulus; 20 g/ha) [%] | Nachauflaufwirkung gegen VIOTR (Viola tricolor; 1,25 g/ha) [%] | Nachauflaufwirkung gegen VIOTR (Viola tricolor; 5 g/ha) [%] | Nachauflaufwirkung gegen VIOTR (Viola tricolor; 20 g/ha) [%] | Nachauflaufwirkung gegen ORYZA (Oryza sativa) [%] | Nachauflaufwirkung gegen VERPE (Veronica persica; 5 g/ha) [%] | Nachauflaufwirkung gegen VERPE (Veronica persica; 20 g/ha) [%] | Nachauflaufwirkung gegen AMARE (Amaranthus retroflexus; 1,25 g/ha) [%] | Nachauflaufwirkung gegen AMARE (Amaranthus retroflexus; 5 g/ha) [%] | Nachauflaufwirkung gegen AMARE (Amaranthus retroflexus; 20 g/ha) [%] | Nachauflaufwirkung gegen SETVI (Setaria viridis; 1,25 g/ha) [%] | Nachauflaufwirkung gegen SETVI (Setaria viridis; 5 g/ha) [%] | other results
COCCOC(=O)C(C)(C)OC(=O)c1cc(-n2c(=O)cc(C(F)(F)F)n(N)c2=O)c(F)cc1Cl [I.1-1] | 90 | 100 | 100 | 100 | 100 | 100 | 0 | 0 | 100 | 80 | 100 | 100 | 0 | 100 | 100 | 100 | 100 | 100 | 100 | 100 | Nachauflaufwirkung gegen ALOMY (Alopecurus myosuroides; 5 g/ha): 80%; Nachauflaufwirkung gegen POLCO (Polygonum convolvulus; 5 g/ha): 100%; Nachauflaufwirkung gegen ZEAMX (Zea mays): 0%; Nachauflaufwirkung gegen VERPE (Veronica persica; 1,25 g/ha): 100%; Nachauflaufwirkung gegen SETVI (Setaria viridis; 20 g/ha): 100%; Nachauflaufwirkung gegen LOLRI (Lolium rigidum): 90%; Nachauflaufwirkung gegen DIGSA (Digitaria sanguinalis; 5 g/ha): 100%; Nachauflaufwirkung gegen DIGSA (Digitaria sanguinalis; 20 g/ha): 100%; Nachauflaufwirkung gegen ABUTH (Abutilon theophrasti; 1,25 g/ha): 90%; Nachauflaufwirkung gegen ABUTH (Abutilon theophrasti; 5 g/ha): 100%; Nachauflaufwirkung gegen ABUTH (Abutilon theophrasti; 20 g/ha): 100%
CC(C)(OC(=O)c1cc(-n2c(=O)cc(C(F)(F)F)n(N)c2=O)c(F)cc1Cl)C(=O)OCC#N [I.1-176, 1-(Cyanmethoxy)-2-methyl-1-oxopropan-2-yl-5-[3-amino-2,6-dioxo-4-(trifluormethyl)-3,6-dihydropyrimidin-1(2H)-yl]-2-chlor-4-fluorbenzoat] | 100 | 100 | 100 | 90 | 100 | 100 | 0 | 20 | 100 | 90 | 100 | 100 | 20 | 100 | 100 | 100 | 100 | 100 | 100 | 100 | Nachauflaufwirkung gegen POLCO (Polygonum convolvulus; 5 g/ha): 100%; Nachauflaufwirkung gegen VERPE (Veronica persica; 1,25 g/ha): 80%; Nachauflaufwirkung gegen SETVI (Setaria viridis; 20 g/ha): 100%; Nachauflaufwirkung gegen LOLRI (Lolium rigidum): 80%; Nachauflaufwirkung gegen DIGSA (Digitaria sanguinalis; 5 g/ha): 100%; Nachauflaufwirkung gegen DIGSA (Digitaria sanguinalis; 20 g/ha): 100%; Nachauflaufwirkung gegen ABUTH (Abutilon theophrasti; 1,25 g/ha): 100%; Nachauflaufwirkung gegen ABUTH (Abutilon theophrasti; 5 g/ha): 100%; Nachauflaufwirkung gegen ABUTH (Abutilon theophrasti; 20 g/ha): 100%
CC(C)(OC(=O)c1cc(-n2c(=O)cc(C(F)(F)F)n(N)c2=O)c(F)cc1Cl)C(=O)OCc1ccccn1 [I.1-286] | 90 | 90 | 100 | 100 | 100 | 100 | 0 | 10 | 100 | 90 | 100 | 100 | 0 | 100 | 100 | 100 | 100 | 100 | 100 | 100 | Nachauflaufwirkung gegen POLCO (Polygonum convolvulus; 5 g/ha): 100%; Nachauflaufwirkung gegen ZEAMX (Zea mays): 20%; Nachauflaufwirkung gegen VERPE (Veronica persica; 1,25 g/ha): 100%; Nachauflaufwirkung gegen SETVI (Setaria viridis; 20 g/ha): 100%; Nachauflaufwirkung gegen LOLRI (Lolium rigidum): 90%; Nachauflaufwirkung gegen DIGSA (Digitaria sanguinalis; 5 g/ha): 100%; Nachauflaufwirkung gegen DIGSA (Digitaria sanguinalis; 20 g/ha): 100%; Nachauflaufwirkung gegen ABUTH (Abutilon theophrasti; 1,25 g/ha): 90%; Nachauflaufwirkung gegen ABUTH (Abutilon theophrasti; 5 g/ha): 100%; Nachauflaufwirkung gegen ABUTH (Abutilon theophrasti; 20 g/ha): 100%
CC(C)=NOC(=O)C(C)(C)OC(=O)c1cc(-n2c(=O)cc(C(F)(F)F)n(N)c2=O)c(F)cc1Cl [I.1-491] | 100 | 100 | 100 | 100 | 100 | 100 | 0 | 0 | 100 | 80 | 100 | 100 | 0 | 100 | 100 | 100 | 100 | 100 | 100 | 100 | Nachauflaufwirkung gegen ZEAMX (Zea mays): 20%; Nachauflaufwirkung gegen SETVI (Setaria viridis; 20 g/ha): 100%; Nachauflaufwirkung gegen LOLRI (Lolium rigidum): 80%; Nachauflaufwirkung gegen DIGSA (Digitaria sanguinalis; 5 g/ha): 100%; Nachauflaufwirkung gegen DIGSA (Digitaria sanguinalis; 20 g/ha): 100%; Nachauflaufwirkung gegen ABUTH (Abutilon theophrasti; 1,25 g/ha): 100%; Nachauflaufwirkung gegen ABUTH (Abutilon theophrasti; 5 g/ha): 100%; Nachauflaufwirkung gegen ABUTH (Abutilon theophrasti; 20 g/ha): 100%
